Several values for one entry are separate records, joined by “and”; a condition that tells them apart may be missing. Equal values may be shown once. Read-outs that look alike come from different tables or passages of the source.
How the values were obtained:
[1] = Cardiac toxicity in 2D cardiac monolayers (CellTiter-Glo, 72 h); format: cell-based, Swiss webster mice; settings: Swiss webster, mouse, primary cardiac muscle cell monolayers (2D culture), ATP levels
Experimental: The primary culture of heart muscle cells was obtained from fetuses of Swiss webster mice. The heart was removed and the ventricles were fragmented and subjected to dissociation with trypsin and collagenase type II (Worthington Biochemical Corporation, Lakewood, USA) dissociation solution. Cell monolayers were employed to evaluate drug-induced cardiotoxicity.
(§1) The 2D cardiac cultures (5 × 10^4 cells/well) and 3D cardiac microtissues (2.5 × 10^4 cells/well) were incubated for 72 h at 37 °C with pyrazole-thiadiazole candidates followed by ATP detection by CellTiter-Glo [86]. A minimum of 3 independent assays were performed in duplicate.

[2] = test system: T. cruzi (Dm28c-Luc) in Vero cell cultures; test: Washout (recovery) assay in T. cruzi-infected Vero cell cultures; format: cell-based, Trypanosoma cruzi; settings: for ALUmean of parasite load in cell monolayer, washout assay: 10 days treatment + 10 days without drug
Experimental: The culture medium of the untreated and treated infected cultures was replaced every 3 or 4 days by a fresh medium with or without the pyrazole-thiadiazole derivatives. The presence of free viable parasites in the culture supernatant was monitored at each medium change by adding luciferin (300 µg/mL) followed by readout on a Glomax microplate reader. At the endpoint, culture supernatants and cell monolayers were evaluated for viable parasites. Positive and negative controls were performed using Bz (150 µM) and DMSO (≤1%), respectively. A minimum of 3 independent experimental runs were performed with 12 replicates.

[3] = test system: Trypomastigotes of T. cruzi (Dm28c-Luc); test: microbe, parasite or virus in culture; format: cell-based, Trypanosoma cruzi; settings: for IC50 / IC90: 24 h treatment; for IC50: mean ± SD, read-out: Anti-T. cruzi Activity Trypomastigotes IC50; for IC90: read-out: Anti-T. cruzi Activity Trypomastigotes IC90
Experimental: (§2) Genetically modified T. cruzi parasites, of clone Dm28c (TcI) expressing the firefly luciferase enzyme gene (Dm28c-Luc), were kindly provided by Dr. Cristina Henriques. T. cruzi Dm28c-Luc was maintained in a Vero cell cultivated in RPMI 1640 medium supplemented with 10% FBS. At 4-day post-infection (dpi), trypomastigotes, released in the cell culture supernatant, were harvested, followed by sedimentation (4000 rpm/20 min/4 °C) and quantification in a Neubauer chamber. Isolated trypomastigotes were used in the phenotypic screening assays as well as the antiparasitic activity in 3D cardiac microtissues, recovery (washout), and drug combination assays.
Drug screening was performed against clinically relevant forms of T. cruzi (amastigotes and trypomastigotes). Trypomastigotes, Dm28c-Luc (1 × 10^6 parasites/well), were added to 96-well plates and incubated with pyrazole-thiadiazole derivatives or Bz (100–0.41 µM). After 24 h of treatment (37 °C), the viability of the parasites was analyzed by adding a D-Luciferin solution (300 µg/mL) and luminescence was measured in the Glomax microplate reader.

[4] = Toxicity in mammalian cells (CellTiter Glo, 72 h); format: cell-based; settings: African green monkey, Vero cells; 72 h, ATP levels; read-out: Cytotoxicity Vero Cells CC50
Experimental: (§3) Vero cell cultures grown in RPMI 1640 medium containing 10% fetal bovine serum (FBS) were cultured at 37 °C in a humidified atmosphere of 5% CO2 [82]. The cultures were used for drug screening assays and to obtain culture-derived trypomastigotes of T. cruzi.
(§4) Vero cells (1.5 ×10^4 cells/well), cultivated for 24 h at 37 °C in white 96-well plates with clear bottoms, were used to assess the toxicity of the pyrazole-thiadiazole derivatives (series 1 and 2). After washing, the cells were incubated for 72 h at 37 °C with different drug concentrations (500–1.95 μM). Cell viability was measured by adding 20 μL/well of CellTiter Glo reagent (Promega Corporation, Madison, WI, USA). This cell viability kit generates a luminescent signal proportional to the amount of ATP. The luminescence readout was performed using the Glomax Microplate Reader (Promega Corporation, Madison, WI, USA). Thus, the 50% cytotoxicity concentration (CC50), which reduces the cell viability by 50% (CC50), was calculated with Prism GraphPad software (version 8.2.1).

Vero cells = test: Toxicity in mammalian cells (CellTiter Glo, 72 h); format: cell-based
Experimental: as §3, §4

[5] = Cardiac toxicity in 3D cardiac spheroids (CellTiter-Glo, 72 h); format: cell-based, Swiss webster mice; settings: Swiss webster, mouse, 3D cardiac microtissue (cardiac spheroids), ATP levels, read-out: Toxicity CC50 3D Culture
Experimental: (§5) Three-dimensional (3D) cardiac cells were obtained as previously described. Briefly, isolated cardiac muscle cells (2.5 × 10^4 cells/well) were seeded in 96-well U-bottom plates coated with agarose (1%) to form cell aggregates. Cardiac microtissue (7 days in culture) was employed to determine cardiotoxicity and drug efficacy in more complex systems. All animal-use procedures were approved by the Animal Care and Use Committee of Instituto Oswaldo Cruz (license L017/2022-A2).
as §1

[6] = test system: T. cruzi (Dm28c-Luc) intracellular parasites in 3D cardiac spheroids; test: Antiparasitic activity in T. cruzi-infected 3D cardiac microtissues; format: cell-based, Trypanosoma cruzi; settings: 100 µM, 72 h
Experimental: as §5
Cardiac spheroids (2.5 × 10^4 cells/well), formed after 7 days of cultivation in a U-bottom plate, were infected for 24 h with trypomastigote forms of T. cruzi (Dm28c-Luc) at a ratio of 20:1 parasite-host cell. After washing, the drugs were added at concentrations of IC90, two times IC90, and 100 µM, respecting the CC20 value of cardiac spheroids as the maximum concentration. Bz was added at 100 µM. Luminescence measurements, which reveal the luciferase activity of the viable parasites, were performed after the addition of D-luciferin substrate (300 µg/mL). The luminescent signal was read in the Glomax reader and the results were represented in arbitrary luminescence units (ALU). The fluorescence microscopy images were also acquired from untreated and drug-treated infected 3D microtissues. Three-dimensional cultures were fixed with 4% paraformaldehyde in PBS and labeled with 4′,6-diamidino-2-phenylindole (DAPI). Images were acquired using a Zeiss Axio Imager M2 fluorescence microscope using Axio vision software (version 4.8).

[7] = test system: Intracellular amastigotes of T. cruzi (Dm28c-Luc); test: microbe, parasite or virus in culture; format: cell-based, Trypanosoma cruzi; settings: for IC50 / IC90: Trypanosoma cruzi; for IC90: read-out: Anti-T. cruzi Activity Intracellular Amastigotes IC90
Experimental: as §2
The activity of pyrazole-thiadiazole derivatives against intracellular amastigotes was evaluated in 24 h-T. cruzi infected Vero cell cultures (1.5 × 10^4 cells/well) at a 10:1 ratio. The cultures were washed and incubated with serial dilutions of the derivatives or Bz (100–0.41 µM). Drug treatment was carried out for 72 h at 37 °C and the parasite viability was determined by luminescence readout after D-Luciferin substrate addition (300 µg/mL). The reading was performed in the Glomax reader. The cell cultures incubated with the culture medium containing dimethylsulphoxide (DMSO; concentration ≤ 1%) were used as the […]. The concentrations required to inhibit parasite viability by 50% (IC50) and 90% (IC90) were calculated using Prism GraphPad software (version 8.2.1). The selectivity index (SI), which measures the window between cytotoxicity (CC50) and anti-T. cruzi activity (IC50), was calculated as CC50/IC50. A minimum of 3 independent assays in duplicate were performed.

Leishmania = test system: Leishmania; parameters: method as in PMID 32492796; settings: cited from earlier work
[8] = Trypanosoma cruzi, 24 h, Dm28c-Luc
[9] = Vero, read-out: Intracellular Amastigotes pIC50 (converted)
[10] = Dm28c-Luc in Vero cells, 72 h treatment, mean ± SD, read-out: Anti-T. cruzi Activity Intracellular Amastigotes IC50
[11] = Dm28c-Luc in Vero cells, 72 h treatment, mean ± SD

## Nc1nnc(-c2cnn(-c3ccc(Cl)cc3Cl)c2)s1 [1c, 5-Amino-2-(1-(2,4-dichlorophenyl)-1H-pyrazol-4-yl)-1,3,4-thiadiazole]
[1]
  CC50 at 72 h: > 500 µM
[2]; 150 µM
  ALUmean of parasite load in cell monolayer, washout assay: 57,103 ± 15,228 ALU
[2]; 300 µM
  ALUmean of parasite load in cell monolayer, washout assay: 66,378 ± 14,991 ALU
[2]; Trypanosoma cruzi, Vero, 150 µM, 11 dpi, read-out: Inhibition in the release of trypomastigotes
  inhibition at 150 µM: 52%
[2]; Trypanosoma cruzi, Vero, 300 µM, 11 dpi, read-out: Inhibition in the release of trypomastigotes
  inhibition at 300 µM: 66%
[2]; washout assay
  Prevention of reactivation of infection after drug withdrawal: trypanostatic action
[3]; Dm28c-Luc, 24 h
  Trypomastigotes IC75: 54.6 µM and 54.66 µM
[3]; Dm28c-Luc
  IC50: 21.7 ± 2.94 µM
[3]; [8]
  IC50: 21.7 µM
[3]; Trypanosoma cruzi, Dm28c-Luc
  IC90: > 100 µM
[4]
  CC50 at 72 h: > 500 µM
Vero cells
  CC20 for Vero cell monolayers: > 500 µM
[5]
  CC50 at 72 h: > 500 µM
other
  melting point: 284 to 285 °C
[6]
  ALUmean (luminescence, parasite load) in 3D cardiac microtissue: 17,078 ± 2407 ALU
[6]; Trypanosoma cruzi, vs infected untreated, read-out: Inhibition of parasite load in 3D cardiac microtissue
  inhibition at 100 µM: 57%
[7]; [9]
  IC50: 13.5 µM
[7]; [10]
  IC50: 13.5 ± 4.47 µM
[7]; [11]
  IC90: 42.3 ± 3.47 µM

## Nc1nnc(-c2cnn(-c3ccc(Cl)cc3Cl)c2N)s1 [2c, 5-Amino-2-(5-amino-1-(2,4-dichlorophenyl)-1H-pyrazol-4-yl)-1,3,4-thiadiazole]
[2]; washout assay, concentration and day not stated
  Reduction of the release of trypomastigotes: ≥ 82%
[3]
  Trypomastigotes SI (CC50 of Vero cells/IC50 of trypomastigotes): >5
[3]; [8]
  IC50: > 100 µM
[3]; Trypanosoma cruzi, Dm28c-Luc
  IC90: > 100 µM
[4]
  CC50 at 72 h: > 500 µM
other
  melting point: 165 to 167 °C
[7]
  Intracellular Amastigotes SI (CC50 of Vero cells/IC50 of intracellular amastigotes): >7.14
[7]; [9]
  IC50: > 70.8 µM
[7]; [10]
  IC50: > 70 µM
[7]; [11]
  IC90: > 70 µM

## Nc1nnc(-c2cnn(-c3ccc(F)cc3)c2N)s1 [2g, 5-Amino-2-(5-amino-1-(4-fluorophenyl)-1H-pyrazol-4-yl)-1,3,4-thiadiazole]
[3]
  Trypomastigotes SI (CC50 of Vero cells/IC50 of trypomastigotes): >5
[3]; [8]
  IC50: > 100 µM
[3]; Trypanosoma cruzi, Dm28c-Luc
  IC90: > 100 µM
[4]
  CC50 at 72 h: > 500 µM
other
  melting point: 251 to 253 °C
[7]
  Intracellular Amastigotes SI (CC50 of Vero cells/IC50 of intracellular amastigotes): >7.14
[7]; [9]
  IC50: > 70.8 µM
[7]; [10]
  IC50: > 70 µM
[7]; [11]
  IC90: > 70 µM

## Nc1nnc(-c2cnn(-c3cccc(F)c3)c2N)s1 [2h, 5-Amino-2-(5-amino-1-(3-fluorophenyl)-1H-pyrazol-4-yl)-1,3,4-thiadiazole]
[3]
  Trypomastigotes SI (CC50 of Vero cells/IC50 of trypomastigotes): >5
[3]; [8]
  IC50: > 100 µM
[3]; Trypanosoma cruzi, Dm28c-Luc
  IC90: > 100 µM
[4]
  CC50 at 72 h: > 500 µM
other
  melting point: 285 to 286 °C
[7]
  Intracellular Amastigotes SI (CC50 of Vero cells/IC50 of intracellular amastigotes): >7.14
[7]; [9]
  IC50: > 70.8 µM
[7]; [10]
  IC50: > 70 µM
[7]; [11]
  IC90: > 70 µM

## Nc1nnc(-c2cnn(-c3ccc(Br)cc3)c2N)s1 [2i, 5-Amino-2-(5-amino-1-(4-bromophenyl)-1H-pyrazol-4-yl)-1,3,4-thiadiazole]
[3]
  Trypomastigotes SI (CC50 of Vero cells/IC50 of trypomastigotes): >5
[3]; [8]
  IC50: > 100 µM
[3]; Trypanosoma cruzi, Dm28c-Luc
  IC90: > 100 µM
[4]
  CC50 at 72 h: > 500 µM
other
  melting point: 286 to 287 °C
[7]
  Intracellular Amastigotes SI (CC50 of Vero cells/IC50 of intracellular amastigotes): >7.58
[7]; [9]
  IC50: 69.2 µM
[7]; [10]
  IC50: 68.73 ± 0.05 µM
[7]; [11]
  IC90: > 70 µM

## Nc1nnc(-c2cnn(-c3cccc(Br)c3)c2N)s1 [2j, 5-Amino-2-(5-amino-1-(3-bromophenyl)-1H-pyrazol-4-yl)-1,3,4-thiadiazole]
[3]
  Trypomastigotes SI (CC50 of Vero cells/IC50 of trypomastigotes): >5
[3]; [8]
  IC50: > 100 µM
[3]; Trypanosoma cruzi, Dm28c-Luc
  IC90: > 100 µM
[4]
  CC50 at 72 h: > 500 µM
other
  melting point: 245 to 246 °C
[7]
  Intracellular Amastigotes SI (CC50 of Vero cells/IC50 of intracellular amastigotes): >7.14
[7]; [9]
  IC50: > 70.8 µM
[7]; [10]
  IC50: > 70 µM
[7]; [11]
  IC90: > 70 µM

## COc1ccc(-n2ncc(-c3nnc(N)s3)c2N)cc1 [2l, 5-Amino-2-(5-amino-1-(4-methoxyphenyl)-1H-pyrazol-4-yl)-1,3,4-thiadiazole]
[3]
  Trypomastigotes SI (CC50 of Vero cells/IC50 of trypomastigotes): >100
[3]; [8]
  IC50: > 100 µM
[3]; Trypanosoma cruzi, Dm28c-Luc
  IC90: > 100 µM
[4]
  CC50 at 72 h: > 500 µM
other
  melting point: 303 to 305 °C
[7]
  Intracellular Amastigotes SI (CC50 of Vero cells/IC50 of intracellular amastigotes): >7.14
[7]; [9]
  IC50: > 70.8 µM
[7]; [10]
  IC50: > 70 µM
[7]; [11]
  IC90: > 70 µM

## C[C@@H]1[C@H](O)[C@@H](C)/C=C/C=C/C=C/C=C/C=C/C=C/C=C/[C@H](O[C@@H]2O[C@H](C)[C@@H](O)[C@H](N)[C@@H]2O)C[C@@H]2O[C@](O)(C[C@@H](O)C[C@@H](O)[C@H](O)CC[C@@H](O)C[C@@H](O)CC(=O)O[C@H]1C)C[C@H](O)[C@H]2C(=O)O [amphotericin B]
Leishmania; 2D model
  EC50: 0.0349 µM
Leishmania; 3D macrophage cultures
  EC50: 0.0523 µM
Leishmania
  Increase in the EC50 value of 3D vs 2D macrophage cultures: 33%

From paper PMC11314410, “Synthesis and Anti-Trypanosoma cruzi Activity of New Pyrazole-Thiadiazole Scaffolds” (Molecules, 2024)
